How the values were obtained:
[1] = Influencing factors test (light, high temperature, high humidity); assay type: physicochemical
Experimental: The stability of the crystalline form of the present invention under accelerated test conditions was determined. […] Stability testing was conducted under the following conditions, and samples were taken on the 0th day, the 5th day, the 10th day and the 30th day. The content, total impurities, and XRPD patterns of the samples were recorded and compared with the initial data.

[2] = Solid state stability (HPLC purity, XRPD); assay type: physicochemical; details: for Purity (%): open
Experimental: Purity testing (via HPLC) and crystal form detection (via XRPD) were performed on starting samples, samples stored for one week, and samples stored for two weeks.

[3] = Pharmacokinetic experiment; assay type: in vivo; details: SD rats, single intragastric administration
Experimental: 12 SD rats were divided into two groups, with 6 rats in each group, half male and half female, and each was given a single intragastric administration; blood was collected through the fundus venous plexus at designated time points, and the plasma was separated and stored in a −80° C. refrigerator.
For the above plasma sample, after protein precipitation with acetonitrile, the supernatant was diluted with water and 5 μL was transferred to LC-MS/MS for detection.

[4] = Dynamic solubility in biological solvents at 37° C.; assay type: physicochemical
Experimental: (1) Preparation method of FaSSIF: a. Weigh 42 mg NaOH, 395 mg NaH2PO4·H2O and 619 mg NaCl in a 100 mL beaker, add 90 mL deionized water to dissolve: b. Adjust the pH to […]; Dilute to 100 mL with deionized water to obtain FaSSIF blank solvent: c. Weigh 224 mg of Simulated Intestinal Fluid (hereinafter referred to as SIF powder), add 50 mL of the above FaSSIF blank solvent, and stir until completely dissolved; use Dilute the FaSSIF blank solvent to 100 mL to prepare the solvent FaSSIF; d. Let it stand at room temperature for 2 hours before use.
(2) Preparation method of FeSSIF: a. Weigh 404 mg NaOH, 865 mg glacial acetic acid and 1189 mg NaCl in a 100 mL beaker, add 90 mL deionized water to dissolve: b. Adjust the pH to 5.0 with 1N NaOH or 1N HCl; Dilute to 100 mL with deionized water to obtain FeSSIF blank solvent; c. Weigh 1120 mg SIF powder and add 50 mL of the above FeSSIF blank solvent, stir until dissolved: dilute to 100 mL with FeSSIF blank solvent to obtain FeSSIF solvent d. Let it stand at room temperature before use to ensure a clear solution.
(3) Preparation method of SGF: a. Weigh 200 mg NaCl in a 100 mL beaker, add 90 mL deionized water to dissolve; b. Adjust the pH to 1.6 with 1N HCl; dilute to 100 mL with deionized water to obtain SGF Blank solvent; c. Weigh 6 mg SIF powder and add 50 mL of the above SGF blank solvent, stir until dissolved: dilute to 100 mL with SGF blank solvent to prepare the solvent SGF: d. Let it stand at room temperature before use to ensure a clear solution.
(100 rpm). Take 1.3 mL of the suspension (or clarified solution) respectively at 1, 4, and 24 hours, and centrifuge the suspension for 5 minutes. The solid obtained is used for crystal form detection (XRPD), and the supernatant/clarified solution is filtered for solubility testing and pH test.
Solubility data of the samples were collected using a high-performance liquid chromatograph equipped with an image diode array detector.

[5] = High humidity test (25° C., 90 ± 5% RH), 5 d
[6] = High humidity test (25° C., 90 ± 5% RH), 10 d
[7] = High humidity test (25° C., 90 ± 5% RH), 30 d
[8] = High temperature test (60° C.), 5 d
[9] = High temperature test (60° C.), 10 d
[10] = High temperature test (60° C.), 30 d
[11] = Light test (Illuminance 5000 Lx and UV lamp energy 0.9 W/m^2), 5 d
[12] = Light test (Illuminance 5000 Lx and UV lamp energy 0.9 W/m^2), 10 d
[13] = Light test (Illuminance 5000 Lx and UV lamp energy 0.9 W/m^2), 30 d

For `C[C@@H](O)c1nc2cnc3[nH]ccc3c2n1N1CCC(CC#N)CC1` [Crystalline form A, (R)-2-(1-(2-(1-hydroxyethyl)imidazo[4,5-d]pyrrolo[2,3-b]pyridine-1(6H)-yl)piperidin-4-yl)acetonitrile], the “Content (%)” value ([1]; 0 d) was 99.1%, the Total impurity ([1]; 0 d) was 0.325% and the “stability under accelerated test conditions (content, total impurities, XRPD)” value ([1]; 5000Lx light, 60° C., 90% RH±5% RH, 0, 5, 10, 30 days) was “better stability”. For the same compound, the “Content (%)” value [1, 5] was 100.1%, the Total impurity [1, 5] was 0.32% and the “Content (%)” value [1, 6] was 100.1%. The Total impurity [1, 6] was 0.31%, the “Content (%)” value [1, 7] was 100.1% and the Total impurity [1, 7] was 0.32%. The “Content (%)” value [1, 8] was 100.2%, the Total impurity [1, 8] was 0.34% and the “Content (%)” value [1, 9] was 100.4%. The Total impurity [1, 9] was 0.33%, the “Content (%)” value [1, 10] was 100.3% and the Total impurity [1, 10] was 0.35%. For the same compound, the “Content (%)” value [1, 11] was 99.5%, the Total impurity [1, 11] was 0.34% and the “Content (%)” value [1, 12] was 98.9%. For the same compound, the Total impurity [1, 12] was 0.36%, the “Content (%)” value [1, 13] was 99.4% and the Total impurity [1, 13] was 0.43%. For the same compound, the “solid-state stability (conclusion)” value [2] was “good solid-state stability”, the “Purity (%)” value ([2]; 1 week, 25° C./60% RH) was 99.64% and the “Purity (%)” value ([2]; 1 week, 40° C./75% RH) was 99.62%. For the same compound, the “Purity (%)” value ([2]; 1 week, 60° C.) was 99.62%, the Crystal form changes ([2]; 1 week, 25° C./60% RH, 40° C./75% RH, 60° C.) was “no change” and the “Purity (%)” value ([2]; 2 week, 25° C./60% RH) was 99.60%. For the same compound, the “Purity (%)” value ([2]; 2 week, 40° C./75% RH) was 99.60%, the “Purity (%)” value ([2]; 2 week, 60° C.) was 99.66% and the Crystal form changes ([2]; 2 week, 25° C./60% RH, 40° C./75% RH, 60° C.) was “no change”. The “change in the crystalline form (XRPD)” value ([2]; after one week and two weeks of storage under the selected conditions) was “no change”, the change in purity ([2]; after one week and two weeks under the selected conditions) was “no significant change” and the “Starting sample Purity (%)” value ([2]; starting sample) was 99.59%. For the same compound, the “bioavailability in the body” value [3] was “high bioavailability”, the “Changes in Crystal form” value ([4]; FaSSIF, 37° C., 1 h) was “no change” and the pH ([4]; FaSSIF, 37° C., 1 h) was 6.41. The pH ([4]; FaSSIF, 37° C., 4 h) was 6.49, the “Changes in Crystal form” value ([4]; FaSSIF, 37° C., 24 h) was “no change” and the pH ([4]; FaSSIF, 37° C., 24 h) was 6.54. For the same compound, the “Changes in Crystal form” value ([4]; FeSSIF, 37° C., 1 h) was “no change”, the pH ([4]; FeSSIF, 37° C., 1 h) was 4.92 and the pH ([4]; FeSSIF, 37° C., 4 h) was 4.95. For the same compound, the “Changes in Crystal form” value ([4]; FeSSIF, 37° C., 24 h) was “no change”, the pH ([4]; FeSSIF, 37° C., 24 h) was 4.99 and the “Changes in Crystal form” value ([4]; SGF, 37° C., 1 h) was “no change”. The pH ([4]; SGF, 37° C., 1 h) was 2.92, the pH ([4]; SGF, 37° C., 4 h) was 2.99 and the “Changes in Crystal form” value ([4]; SGF, 37° C., 24 h) was “no change”. For the same compound, the pH ([4]; SGF, 37° C., 24 h) was 2.95, the “crystal form stability when suspended and stirred” value ([4]; SGF/FeSSIF/FeSSIF, 24 hours, 37° C.) was “stable” and the “solubility in three solvents (SGF/FaSSIF/FeSSIF), comparison” value ([4]; within 24 hours at 37° C.) was “greater than that of crystalline form Q”.

Reference: patent US20250019379A1, “NEW CRYSTAL FORM OF COMPOUND, AND PREPARATION METHOD THEREFOR AND USE THEREOF” (E-nitiate Biopharmaceuticals (Hangzhou) Co., Ltd, priority 2021, published 2025)
